Consider 5 compounds from ChEMBL document CHEMBL1144945, “Development of progesterone receptor antagonists from 1,2-dihydrochromeno[3,4-f]quinoline agonist pharmacophore” (Bioorg Med Chem Lett, 2003).

In experiment [1] the target is T1, Progesterone receptor (Homo sapiens, UniProt P06401).
T1 sequence (P06401 whole entry): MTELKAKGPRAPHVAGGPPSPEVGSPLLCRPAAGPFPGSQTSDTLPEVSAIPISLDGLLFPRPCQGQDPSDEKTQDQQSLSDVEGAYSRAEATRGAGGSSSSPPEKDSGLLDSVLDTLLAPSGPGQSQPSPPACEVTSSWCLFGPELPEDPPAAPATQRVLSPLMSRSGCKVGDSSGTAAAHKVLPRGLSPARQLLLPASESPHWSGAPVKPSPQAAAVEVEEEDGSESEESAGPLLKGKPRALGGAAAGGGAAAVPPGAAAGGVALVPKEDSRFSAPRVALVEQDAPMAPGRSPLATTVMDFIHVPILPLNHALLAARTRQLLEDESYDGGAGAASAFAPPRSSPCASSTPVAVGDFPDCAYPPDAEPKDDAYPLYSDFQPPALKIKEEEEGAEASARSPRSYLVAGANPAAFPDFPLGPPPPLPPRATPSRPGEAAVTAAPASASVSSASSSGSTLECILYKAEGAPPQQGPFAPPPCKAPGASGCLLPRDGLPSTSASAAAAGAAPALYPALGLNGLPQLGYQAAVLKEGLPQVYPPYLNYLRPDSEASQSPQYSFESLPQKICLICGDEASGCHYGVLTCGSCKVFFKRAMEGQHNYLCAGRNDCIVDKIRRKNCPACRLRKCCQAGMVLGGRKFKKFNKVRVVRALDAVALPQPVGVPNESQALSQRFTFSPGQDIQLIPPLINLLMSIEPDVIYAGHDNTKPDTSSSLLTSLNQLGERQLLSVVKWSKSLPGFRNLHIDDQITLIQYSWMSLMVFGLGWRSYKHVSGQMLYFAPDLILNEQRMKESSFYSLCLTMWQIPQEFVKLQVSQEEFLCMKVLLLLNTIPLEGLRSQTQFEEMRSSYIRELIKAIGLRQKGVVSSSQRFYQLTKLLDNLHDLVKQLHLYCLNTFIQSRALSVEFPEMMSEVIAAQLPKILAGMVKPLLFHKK
In words: Binding towards human progesterone receptor.

The target of experiment [2] is T2, Progesterone receptor (Homo sapiens) (UniProt P06401).
T2 sequence (whole entry): T1 sequence (P06401 whole entry)
The experiment in a line: Antagonist efficacy for human progesterone in T47D human breast cancer cell. It is filed as functional, cell-based.

The target of experiment [3] is T2, Progesterone receptor (Homo sapiens). The experiment in a line: Agonist efficacy for human progesterone in T47D human breast cancer cell. It is filed as functional, cell-based.
In experiment [4] the target is T3, Androgen receptor (Homo sapiens) (UniProt P10275).
T3 sequence (whole entry): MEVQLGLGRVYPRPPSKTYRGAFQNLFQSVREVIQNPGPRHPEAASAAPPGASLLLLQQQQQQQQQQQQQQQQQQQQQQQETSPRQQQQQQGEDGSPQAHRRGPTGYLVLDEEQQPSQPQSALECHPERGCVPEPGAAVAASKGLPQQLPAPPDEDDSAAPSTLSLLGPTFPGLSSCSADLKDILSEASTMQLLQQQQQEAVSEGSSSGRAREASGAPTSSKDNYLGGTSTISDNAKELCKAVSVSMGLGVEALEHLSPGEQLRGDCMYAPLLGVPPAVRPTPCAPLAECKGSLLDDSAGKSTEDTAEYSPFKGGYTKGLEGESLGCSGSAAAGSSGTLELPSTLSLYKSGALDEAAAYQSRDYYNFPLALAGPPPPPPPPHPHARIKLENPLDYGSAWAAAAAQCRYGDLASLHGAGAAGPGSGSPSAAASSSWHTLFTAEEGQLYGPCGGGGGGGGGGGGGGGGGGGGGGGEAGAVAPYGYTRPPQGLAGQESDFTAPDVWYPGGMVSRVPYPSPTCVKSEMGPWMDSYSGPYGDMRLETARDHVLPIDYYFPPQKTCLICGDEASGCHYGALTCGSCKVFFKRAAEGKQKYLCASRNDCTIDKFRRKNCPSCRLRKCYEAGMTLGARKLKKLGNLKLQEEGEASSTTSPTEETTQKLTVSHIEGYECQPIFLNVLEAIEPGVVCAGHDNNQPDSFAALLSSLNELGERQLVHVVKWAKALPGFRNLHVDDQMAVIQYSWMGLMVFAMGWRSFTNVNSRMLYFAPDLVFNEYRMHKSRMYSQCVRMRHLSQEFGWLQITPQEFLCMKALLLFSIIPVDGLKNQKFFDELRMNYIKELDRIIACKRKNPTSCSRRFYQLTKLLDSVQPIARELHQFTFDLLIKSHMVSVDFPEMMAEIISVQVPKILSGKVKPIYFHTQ
In words: Antagonist efficacy for human sndrogen receptor. Type of experiment: functional.

Experiment [5] concerns the target T1, Progesterone receptor. The experiment in a line: Inhibition of human progesterone in T47D human breast cancer cell. It is filed as cell-based.
The target in experiment [6] is T4, Glucocorticoid receptor (Homo sapiens) (UniProt P04150).
T4 sequence (whole entry): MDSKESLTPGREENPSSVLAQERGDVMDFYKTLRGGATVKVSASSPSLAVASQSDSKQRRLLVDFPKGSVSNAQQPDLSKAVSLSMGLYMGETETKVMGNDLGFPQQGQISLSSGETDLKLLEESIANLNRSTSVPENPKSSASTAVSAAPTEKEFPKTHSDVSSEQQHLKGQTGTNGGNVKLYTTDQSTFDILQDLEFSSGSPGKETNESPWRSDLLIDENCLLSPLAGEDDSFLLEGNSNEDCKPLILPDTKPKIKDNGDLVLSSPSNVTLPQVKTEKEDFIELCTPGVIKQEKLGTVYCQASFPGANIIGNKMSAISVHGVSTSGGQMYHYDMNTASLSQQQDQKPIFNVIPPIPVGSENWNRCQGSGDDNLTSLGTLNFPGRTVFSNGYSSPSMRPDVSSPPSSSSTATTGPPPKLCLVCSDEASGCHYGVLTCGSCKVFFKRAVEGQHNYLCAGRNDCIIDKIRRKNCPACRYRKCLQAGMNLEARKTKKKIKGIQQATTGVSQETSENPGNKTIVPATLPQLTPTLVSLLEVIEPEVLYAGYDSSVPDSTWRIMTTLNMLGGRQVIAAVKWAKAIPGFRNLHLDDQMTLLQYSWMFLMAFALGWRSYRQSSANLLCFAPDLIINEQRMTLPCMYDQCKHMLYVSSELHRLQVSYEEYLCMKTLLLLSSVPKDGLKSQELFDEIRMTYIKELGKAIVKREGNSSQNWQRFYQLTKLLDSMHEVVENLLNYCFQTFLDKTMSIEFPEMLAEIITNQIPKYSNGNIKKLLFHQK
In words: Antagonist efficacy for glucocorticoid (hGR) receptor. It is filed as functional.

Experiment [7] deals with T5, Androgen receptor (Homo sapiens, UniProt P10275).
T5 sequence (P10275 whole entry): T3 sequence (whole entry)
The experiment in a line: Inhibition of antagonist activity towards human Androgen receptor. It is filed as functional.

Experiment [8] has as its target T1, Progesterone receptor. The experiment in a line: Effective concentration for human progesterone in T47D human breast cancer cell. Type of experiment: cell-based, Cancer cell lines.
Experiment [9] deals with T6, Glucocorticoid receptor (Homo sapiens, UniProt P04150).
T6 sequence (P04150 whole entry): T4 sequence (whole entry)
In words: Inhibition of antagonist activity towards glucocorticoid (hGR) receptor. It is filed as functional.

The target of experiment [10] is T6, Glucocorticoid receptor. The experiment in a line: Inhibition of antagonist activity towards glucocorticoid receptor. It is filed as functional.
The target of experiment [11] is T5, Androgen receptor.
Description: Inhibition of antagonist activity towards Androgen receptor
The target in experiment [12] is T5, Androgen receptor. In words: Inhibition of antagonist activity towards human androgen receptor. It is filed as functional.
In experiment [13] the target is T6, Glucocorticoid receptor. In words: Inhibition of antagonist activity towards glucocorticoid receptor; not active. It is filed as functional.
The target in experiment [14] is T4, Glucocorticoid receptor (Homo sapiens). In words: Antagonist efficacy for glucocorticoid receptor; not active. Type of experiment: functional.
The target is the same in experiment [15]. In words: Antagonist efficiency for glucocorticoid (hGR) receptor. Type of experiment: functional.

Activity calls are given as the source filed them. No cut-off for these calls is given here.

In general, Ki refers to the equilibrium dissociation constant of an inhibitor or competing ligand from its target. Lower therefore signals a stronger hold on the target. By IC50 is commonly meant the concentration that gives 50% inhibition. Higher therefore signals weaker potency in that assay. As a reminder, the EC50 is the concentration at which the effect is half-maximal. A higher EC50 goes with weaker potency. Consider `CC1=CC(C)(C)Nc2ccc3c(c21)COc1c(F)cc(F)cc1-3`, for which, at Progesterone receptor [1], the Ki is 13.5 nM. The Efficacy stood at 52% in experiment [2], 42% in [3], 87% in experiment [4] and 57% in experiment [6]. Besides, the results for the IC50 against Progesterone receptor [5], against Androgen receptor [7] and at Glucocorticoid receptor [9] were 86 nM, 644 nM and 3030 nM, respectively. At Progesterone receptor [8], this compound showed an EC50 of 244 nM.
For the compound `CC1=CC(C)(C)Nc2ccc3c(c21)COc1c(F)cc(Br)cc1-3`, the IC50 against Glucocorticoid receptor [10] came to 2170 nM; on Androgen receptor [11], 90 nM.
In the case of `CC1CC(C)(C)Nc2ccc3c(c21)COc1c(F)cc(F)cc1-3` (stereo unspecified), the results for the concentration for half-maximal inhibition (IC50) at Androgen receptor [12] and against Glucocorticoid receptor [13] were 147 nM and “Not Active”, respectively. Besides, in experiment [14], the Efficacy result is “inactive”.
Turning to `CC1CC(C)(C)Nc2ccc3c(c21)COc1ccc([N+](=O)[O-])cc1-3` (stereo unspecified), the figures for the IC50 on Glucocorticoid receptor [10] and at Androgen receptor [11] were 1870 nM and 63 nM, respectively.
Compound `CC1=CC(C)(C)Nc2ccc3c(c21)COc1c(F)cc(Cl)cc1-3` returned an inhibitory constant (Ki) on Progesterone receptor [1] of 5.6 nM. In addition, the Efficacy in [15] turned out to be 95%; in experiment [4], 79%. Further, the IC50 against Androgen receptor [7] was 428 nM; at Glucocorticoid receptor [9], 753 nM.
